Experimental data from US12070472B2, “Treatment of drug resistant proliferative diseases with telomerase mediated telomere altering compounds” (The Board of Regents of the University of Texas System, priority 2016, dated 2024).

Columns and labels:
[1] = test system: HCT116; test: GI 50 determination, HCT116; format: cell-based; conditions: Homo sapiens, HCT-116
Procedure: (§1) Cells of each type listed in Table 2 were seeded in chamber slides.

[2] = test system: H2087; test: GI 50 determination, H2087; format: cell-based; conditions: Homo sapiens, NCI-H2087
Procedure: as §1

[3] = test system: HCC4017; test: GI 50 determination, HCC4017; format: cell-based; conditions: Homo sapiens
Procedure: as §1

[4] = test system: HCT116 cells; conditions: 3 μM twice during one week
Procedure: Cancer HCT116 and normal BJ fibroblast cells were treated with 6-thio-dG (3 μM) and 6-thio-G (3 μM) twice during one week. Following one week of the treatment, cell morphology was monitored, and then the cells were collected and counted.

[5] = test system: BJ fibroblast cells; test: Cell morphology and cell count after one week, BJ fibroblasts; format: cell-based, human; conditions: normal BJ fibroblasts; 3 μM twice during one week
[6] = test system: HCT116 cells
Procedure: For long-term cellular experiments, HCT116 (1,000 cells/cm^2) and BJ (10,000 cells/cm^2) cells were fed with 6-thio-dG (1, 3, 10 μM) containing medium every three days. The cells were counted and replated every week for 10-16 weeks. Additionally, HCT116 cells (1,000 cells/cm^2) were fed with 6-thio-G (1, 3, 10 μM) every three days and each week cells were counted, collected for TRF (Telomere Restriction Fragment) analysis and replated. HCT116 cells, following treatment with 10 μM 6-thio-dG for 12 weeks, were then treated with a combination of 10 μM 6-thio-dG and 3 μM GRN163L for 2-4 weeks.

[7] = molecular target: T1, telomerase (Homo sapiens, UniProt O14746); test: Telomerase activity by TRAP assay in treated HCT116 cells; format: cell-based; conditions: HCT116 cells treated with 1 and 10 μM every 3 days for 12 weeks
T1 construct: endogenous in cells; host or cells: HCT116 human colon cancer cells (lysate)
Procedure: Telomerase activity was measured by the TRAP assay (Telomeric Repeat Amplification Protocol as described in Shay J. W. and Bacchetti S., “A survey of telomerase activity in human cancer,” European Journal of Cancer 1997; 33:787-91.). Briefly, HCT116 cells were treated with 1 or 10 μM 6-thio-dG for 1-12 weeks. 1×10^5 cells were collected and lysed with ice-cold NP-40 lysis buffer (10 mM Tris-HCl pH 8.0, 1.0 mM MgCl2, 1 mM EDTA, 1% NP-40, 0.25 mM sodium deoxycholate, 10% glycerol, 150 mM NaCl, 5 mM β-mercaptoethanol) for 30 min. One microliter cellular lysate for 2500 cells was used for each reaction. Hela cells were used as a positive control and lysis buffer was used as a negative control. Samples were prepared and then the telomerase extension products were amplified using PCR (95° C. for 5 min to inactivate telomerase, then 95° C. for 30 sec, 52° C. for 30 sec, 72° C. for 30 sec; 24 cycles). Samples were run on a 10% non-denaturating acrylamide gel and visualized using a Typhoon PhosphorImager scanner system (Molecular Dynamics, GE Healthcare, Piscataway, NJ) that is capable of reading Cy5 fluorescence.

[8] = test system: HCT116 cells; remark: listed apart in the source
Procedure: Following the treatment cells were seeded at different densities and the cultured for 10 days.

[9] = test system: HCT116 colon cancer cell line; test: CellTitreGlo survival, 7 days, HCT116; format: cell-based; conditions: Homo sapiens, HCT-116, 168 h
Procedure: (§2) Four different cell lines were treated with nine different doses of 6-thio-dG for 7 days. HCT116 colon cancer cell line (FIG. 9A), HCEC1 normal colonic cell line (FIG. 9C), A549 non-small cell lung cancer cell line (FIG. 9B), and BJ normal fibroblast cell line (FIG. 9D) were each treated. Survival fraction was measured by CellTitreGlo luminescent cell viability assay (Promega).

[10] = test system: HCEC1 normal colonic cell line; test: CellTitreGlo survival, 7 days, HCEC1; format: cell-based; conditions: Homo sapiens, 168 h
Procedure: as §2

[11] = test system: BJ normal fibroblast cell line; test: CellTitreGlo survival, 7 days, BJ; format: cell-based; conditions: Homo sapiens, 168 h
Procedure: as §2

[12] = test system: H1993; test: NSCLC panel sensitivity to 6-thio-dG, H1993; format: cell-based, human
Procedure: (§3) A panel of NSCLC cell lines was tested for sensitivity to 6-thio-dG by performing a cell count after 1 week treatment. Briefly, cells were treated with 3 μM 6-thio-dG every three days for 1 week. Viable cells were counted at the end of treatment. Each 6-thiodG treated cell line was normalized to its DMSO treated control.
Two isogenic pairs of NSCLC cell lines were studied for sensitization to 6-thio-dG treatment.

[13] = test system: H2126; test: NSCLC panel sensitivity to 6-thio-dG, H2126; format: cell-based; conditions: Homo sapiens, NCI-H2126
Procedure: as §3, with “control. The results of the cell count are depicted in FIG. 12, with the various cell lines arranged in descending resistance to 6-thio-dG from left to right. […] The IC50 values for the whole panel of tested cells are depicted in FIG. 13. The IC50 values for tested cells are depicted as a column scatter graph in FIG. 14.” for “control.”

[14] = test system: H1993 cells; test: Sensitization by 5-azacytidine pretreatment, H1993; format: cell-based, human; conditions: Homo sapiens, NCI-H1993, 500 nM 5-azacytidine one week, then 6-thio-dG one week, read-out: IC50 of 6-thio-dG after 5-azacytidine pretreatment
Procedure: All three resistant cell lines were pre-treated with 500 nM of the demethylating agent 5-azacytidine for one week. Following the 5-azacytidine pretreatment, each resistant cell line was treated with 9 different concentrations (0.01 to 1000 micromolar) of 6-thio-dG for one week. Cells were then evaluation for growth/death.

[15] = test system: paclitaxel/carboplatin resistant H1355; test: 6-thio-dG on paclitaxel/carboplatin resistant H1355, cell count; format: cell-based, human; conditions: 1, 3, 10 μM every three days for one week
Procedure: A cell count was performed to measure cell growth/death.

[16] = test system: HCC4017 paclitaxel/carboplatin resistant cell line; test: 6-thio-dG on HCC4017 paclitaxel/carboplatin resistant line; format: cell-based, human; conditions: 1, 3, 10 μM
Procedure: (§4) The resulting resistant lines and their parents were tested for the effect of 6-thio-dG at 1, 3, and 10 μM concentrations.

[17] = test system: H1693; test: 6-thio-dG on H1693 parental and paclitaxel/carboplatin resistant lines; format: cell-based, human; conditions: 1, 3, 10 μM
Procedure: as §4

[18] = test system: HCT116 cells; conditions: 3 μM
Procedure: The TIF assay is based on the co-localization detection of DNA damage by an antibody against DNA damage markers such as gamma-H2AX and telomeres by the telomeric protein TRF2. Briefly, HCT116 cells were plated in 4-well chamber slides and after the cells attached to the surface, either 3 μM 6-thio-dG or 3 μM 6-thio-G was added to the medium at different time points (0, 30 min, 12 h, 24 h, 48 h, 72 h). Slides were rinsed once with PBS and fixed in 4% paraformaldehyde in PBS for 10 min. Then, cells were washed twice with PBS and permeabilized in 0.5% Nonidet-P40 in PBS, blocked with 0.5% Bovine Serum Albumin (BSA) and 0.2% fish gelatin in PBS for 30 min. gamma-H2AX (mouse) (Millipore, Billerica, MA) was diluted 1:1000 and TRF2 (rabbit) (Abcam, Cambridge, MA) was diluted 1:200 in blocking solution and this primary Ab mixture was incubated on cells for 2 h. After three washes with PBST (1×PBS in 0.1% Triton) and 3 washes with PBS, cells were incubated with Alexaflour 488 conjugated goat anti rabbit (1:500) (Invitrogen, Grand Island, NY) and Alexaflour 568 conjugated goat anti mouse (1:500) (Invitrogen) for 40 min, then washed six times with PBS. After drying, the slides were mounted with Vectashield mounting medium with DAPI (Vector Laboratories, Burlingame, CA). […] TIFs were quantified using Imaris software. […]

T1 sequence (O14746 whole entry): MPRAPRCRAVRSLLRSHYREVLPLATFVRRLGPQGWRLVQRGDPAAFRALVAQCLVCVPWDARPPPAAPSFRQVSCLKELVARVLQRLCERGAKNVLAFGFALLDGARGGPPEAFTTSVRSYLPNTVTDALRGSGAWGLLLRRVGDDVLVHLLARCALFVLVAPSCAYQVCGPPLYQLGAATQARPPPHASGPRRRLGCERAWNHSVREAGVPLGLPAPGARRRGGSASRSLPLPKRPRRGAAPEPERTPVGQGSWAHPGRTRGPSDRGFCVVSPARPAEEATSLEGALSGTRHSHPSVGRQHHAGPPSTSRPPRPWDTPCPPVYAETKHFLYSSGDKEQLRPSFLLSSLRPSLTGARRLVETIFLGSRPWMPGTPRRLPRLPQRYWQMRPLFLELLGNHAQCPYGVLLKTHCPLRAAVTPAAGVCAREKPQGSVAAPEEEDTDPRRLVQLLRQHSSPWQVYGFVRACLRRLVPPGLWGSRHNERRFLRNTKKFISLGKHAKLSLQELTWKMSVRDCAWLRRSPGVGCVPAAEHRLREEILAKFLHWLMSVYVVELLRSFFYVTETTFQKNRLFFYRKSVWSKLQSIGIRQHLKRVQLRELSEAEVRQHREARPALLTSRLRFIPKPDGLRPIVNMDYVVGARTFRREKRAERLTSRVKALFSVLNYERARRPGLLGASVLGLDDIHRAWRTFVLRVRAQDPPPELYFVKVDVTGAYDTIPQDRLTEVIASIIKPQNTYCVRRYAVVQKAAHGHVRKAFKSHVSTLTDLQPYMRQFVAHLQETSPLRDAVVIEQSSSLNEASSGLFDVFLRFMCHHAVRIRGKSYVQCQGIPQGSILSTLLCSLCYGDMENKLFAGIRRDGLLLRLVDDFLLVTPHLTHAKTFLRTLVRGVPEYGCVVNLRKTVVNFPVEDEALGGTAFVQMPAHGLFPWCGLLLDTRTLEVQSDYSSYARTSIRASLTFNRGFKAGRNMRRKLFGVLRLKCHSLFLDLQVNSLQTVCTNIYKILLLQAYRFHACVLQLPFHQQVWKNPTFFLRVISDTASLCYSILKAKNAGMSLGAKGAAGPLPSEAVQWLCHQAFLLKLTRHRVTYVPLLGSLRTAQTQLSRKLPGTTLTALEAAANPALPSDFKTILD
T1 sequence (O60832 whole entry partner): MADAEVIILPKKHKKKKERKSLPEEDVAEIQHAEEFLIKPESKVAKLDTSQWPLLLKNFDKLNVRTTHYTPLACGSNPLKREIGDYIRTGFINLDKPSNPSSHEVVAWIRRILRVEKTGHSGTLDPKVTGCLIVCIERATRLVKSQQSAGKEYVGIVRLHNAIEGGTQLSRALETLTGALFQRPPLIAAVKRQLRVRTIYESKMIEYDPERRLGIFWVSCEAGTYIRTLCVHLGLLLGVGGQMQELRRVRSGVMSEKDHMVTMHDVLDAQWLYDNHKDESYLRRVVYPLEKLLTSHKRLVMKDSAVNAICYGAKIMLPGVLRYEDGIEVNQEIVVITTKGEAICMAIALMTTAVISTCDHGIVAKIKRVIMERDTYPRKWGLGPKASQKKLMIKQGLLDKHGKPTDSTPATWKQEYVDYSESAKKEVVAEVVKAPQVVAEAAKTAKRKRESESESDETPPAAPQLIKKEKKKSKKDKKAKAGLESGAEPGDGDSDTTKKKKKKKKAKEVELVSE
T1 sequence (Q9NY12 whole entry partner): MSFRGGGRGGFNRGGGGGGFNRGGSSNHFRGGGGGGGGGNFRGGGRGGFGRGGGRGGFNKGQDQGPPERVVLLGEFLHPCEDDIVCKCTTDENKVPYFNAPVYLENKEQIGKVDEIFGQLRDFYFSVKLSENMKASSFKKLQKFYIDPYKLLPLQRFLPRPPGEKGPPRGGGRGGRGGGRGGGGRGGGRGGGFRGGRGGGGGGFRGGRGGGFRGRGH
T1 sequence (Q9NX24 whole entry partner): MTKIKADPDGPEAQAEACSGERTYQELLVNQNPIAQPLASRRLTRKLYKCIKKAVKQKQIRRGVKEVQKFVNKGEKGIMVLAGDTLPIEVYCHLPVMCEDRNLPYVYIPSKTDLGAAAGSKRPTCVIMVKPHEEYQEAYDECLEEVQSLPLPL
T1 sequence (Q9NPE3 whole entry partner): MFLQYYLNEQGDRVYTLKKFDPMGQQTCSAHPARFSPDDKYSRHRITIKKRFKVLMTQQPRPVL
T1 sequence (Q9BUR4 whole entry partner): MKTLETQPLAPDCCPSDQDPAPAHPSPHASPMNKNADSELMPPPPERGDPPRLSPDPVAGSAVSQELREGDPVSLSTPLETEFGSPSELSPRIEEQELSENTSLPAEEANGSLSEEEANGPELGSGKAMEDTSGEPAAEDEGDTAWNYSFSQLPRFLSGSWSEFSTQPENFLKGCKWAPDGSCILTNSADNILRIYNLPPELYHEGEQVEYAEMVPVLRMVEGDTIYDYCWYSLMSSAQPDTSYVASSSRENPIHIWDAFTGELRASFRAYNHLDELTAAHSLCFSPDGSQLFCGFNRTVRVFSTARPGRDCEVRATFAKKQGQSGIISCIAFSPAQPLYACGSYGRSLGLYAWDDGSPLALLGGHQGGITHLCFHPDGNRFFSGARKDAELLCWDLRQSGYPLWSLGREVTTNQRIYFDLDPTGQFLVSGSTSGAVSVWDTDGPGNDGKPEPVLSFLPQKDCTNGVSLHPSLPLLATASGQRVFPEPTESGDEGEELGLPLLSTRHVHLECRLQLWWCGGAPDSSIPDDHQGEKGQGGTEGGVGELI

Nc1nc2c(ncn2[C@H]2C[C@H](O)[C@@H](CO)O2)c(=S)[nH]1 [6-thio-dG, 6-thio-2′-deoxyguanosine]
GI50 [1]: 1 µM
GI50 [2]: 0.9 µM
GI50 [3]: 0.9 µM
cell death / cell count [4]: death of the vast majority of HCT116 cells
morphology and cell counts [5]: only slightly affected
telomere shortening (TRF) ([6]; 1 μM or 10 μM every 3 days, 12 weeks): dramatic telomere shortening
telomere length on continued treatment (TRF) ([6]; 10 μM 6-thio-dG for 12 weeks, continued to 16 weeks): exhibited stablized telomeres
acquisition of resistance (cell growth) ([6]; 1, 3, 10 μM, weekly over 10 weeks): begin to acquire resistance to the treatment by the third week
telomere length after drug removal (TRF) ([6]; 12 weeks 6-thio-dG, then normal medium without drug 2-4 weeks): remained about the same as after 12 week of 6-thio-dG treatment
inhibition of telomerase activity (TRAP) [7]: no inhibition of telomerase activity was observed
survival fraction ([8]; 3 μM, after 72 hours irradiated, cultured 10 days): lower than cells treated with 6-thio-G
cell viability ([8]; cell titer glow luminescent assay): lower than cells treated with 6-thio-G
IC50 [9]: 1.1 µM
IC50 [10]: > 100 µM
IC50 [11]: > 100 µM
survival rate ([12]; H1993, 3 μM every three days for 1 week, normalized to DMSO control): greater than 50%
IC50 ([12]; Homo sapiens, NCI-H1993): > 100 µM
IC50 [13]: 3 to 7 µM
IC50 [14]: ~4.1 µM
sensitivity (cell count) [15]: sensitive to all three concentrations
sensitivity [16]: still sensitive to 6-thio-dG
sensitivity [17]: resistant to 6-thio-dG
increase in telomeric DNA damage as compared to 6-thio-G ([18]; after 72 h): 2.8 fold
genomic DNA damage ([18]; compared to 6-thio-G): overall increase in genomic DNA damage
